Measured values taken from patent publication US8461083B2, “Herbicidal compounds” (Syngenta Limited, priority 2008, dated 2013).

Tests used:
Assay type in all cases: in vivo
[1] = system: Alopecurus myosuroides (ALOMY); assay: Pre-emergence herbicidal glasshouse test; conditions: pre-emergence (sprayed after one day cultivation), evaluated after 13 days, 100=total damage to plant, 0=no damage to plant; for PRE Application ALOMY, damage to plant: 1000 g/ha; for pest or weed control at 1000 g/ha: Alopecurus myosuroides, 312 h, read-out: PRE Application ALOMY, damage to plant
How it was run: (§1)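 Damage rated 13 days after application on a 0 (none) to 100 (total) scale. Compounds went on at 1000 g/ha in acetone/water 50:50 plus 0.5% Tween 20, one day post-sowing for pre-emergence or eight days for post-emergence. Plants grown at 24/16° C, 14 h light, 65% humidity.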

[2] = system: Amaranthus retoflexus (AMARE); assay: Pre-emergence herbicidal glasshouse test; conditions: pre-emergence (sprayed after one day cultivation), evaluated after 13 days, 100=total damage to plant, 0=no damage to plant; for PRE Application AMARE, damage to plant: 1000 g/ha; for pest or weed control at 1000 g/ha: Amaranthus retroflexus, 312 h, read-out: PRE Application AMARE, damage to plant
How it was run: as §1

Setaria faberi (SETFA) [3] = assay: Pre-emergence herbicidal glasshouse test; conditions: pre-emergence (sprayed after one day cultivation), evaluated after 13 days, 100=total damage to plant, 0=no damage to plant; for PRE Application SETFA, damage to plant: 1000 g/ha; for pest or weed control at 1000 g/ha: Setaria faberi, 312 h, read-out: PRE Application SETFA, damage to plant
How it was run: as §1

Solanum nigrum (SOLNI) [4] = assay: Pre-emergence herbicidal glasshouse test; conditions: pre-emergence (sprayed after one day cultivation), evaluated after 13 days, 100=total damage to plant, 0=no damage to plant; for PRE Application SOLNI, damage to plant: 1000 g/ha; for pest or weed control at 1000 g/ha: Solanum nigrum, 312 h, read-out: PRE Application SOLNI, damage to plant
How it was run: as §1

[5] = system: Echinochloa crus-galli (ECHCG); assay: Pre-emergence herbicidal glasshouse test; conditions: pre-emergence (sprayed after one day cultivation), evaluated after 13 days, 100=total damage to plant, 0=no damage to plant; for PRE Application ECHCG, damage to plant: 1000 g/ha; for pest or weed control at 1000 g/ha: Echinochloa crus-galli, 312 h, read-out: PRE Application ECHCG, damage to plant
How it was run: (§2)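 Sow in standard soil; grow 1 d (pre-emergence) or 8 d (post-emergence) at 24/16 °C, 14 h light, 65% humidity. Spray test compound at 1000 g/ha in aqueous acetone (50:50) with 0.5% Tween 20. Grow on under the same conditions and score injury (0–100) after 13 days.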

[6] = system: Alopecurus myosuroides (ALOMY); assay: Post-emergence herbicidal glasshouse test; conditions: post-emergence (sprayed after 8 days cultivation), evaluated after 13 days, 100=total damage to plant, 0=no damage to plant; for POST Application ALOMY, damage to plant: 1000 g/ha; for pest or weed control at 1000 g/ha: Alopecurus myosuroides, 312 h, read-out: POST Application ALOMY, damage to plant
How it was run: as §1

[7] = system: Amaranthus retoflexus (AMARE); assay: Post-emergence herbicidal glasshouse test; conditions: post-emergence (sprayed after 8 days cultivation), evaluated after 13 days, 100=total damage to plant, 0=no damage to plant; for POST Application AMARE, damage to plant: 1000 g/ha; for pest or weed control at 1000 g/ha: Amaranthus retroflexus, 312 h, read-out: POST Application AMARE, damage to plant
How it was run: as §1

Setaria faberi (SETFA) [8] = assay: Post-emergence herbicidal glasshouse test; conditions: post-emergence (sprayed after 8 days cultivation), evaluated after 13 days, 100=total damage to plant, 0=no damage to plant; for POST Application SETFA, damage to plant: 1000 g/ha; for pest or weed control at 1000 g/ha: Setaria faberi, 312 h, read-out: POST Application SETFA, damage to plant
How it was run: as §1

Solanum nigrum (SOLNI) [9] = assay: Post-emergence herbicidal glasshouse test; conditions: post-emergence (sprayed after 8 days cultivation), evaluated after 13 days, 100=total damage to plant, 0=no damage to plant; for POST Application SOLNI, damage to plant: 1000 g/ha; for pest or weed control at 1000 g/ha: Solanum nigrum, 312 h, read-out: POST Application SOLNI, damage to plant
How it was run: as §1

[10] = system: Echinochloa crus-galli (ECHCG); assay: Post-emergence herbicidal glasshouse test; conditions: post-emergence (sprayed after 8 days cultivation), evaluated after 13 days, 100=total damage to plant, 0=no damage to plant; for POST Application ECHCG, damage to plant: 1000 g/ha; for pest or weed control at 1000 g/ha: Echinochloa crus-galli, 312 h, read-out: POST Application ECHCG, damage to plant
How it was run: as §2

SMILES | PRE Application ALOMY, damage to plant [1] | PRE Application AMARE, damage to plant [2] | PRE Application SETFA, damage to plant (Setaria faberi (SETFA) [3]) | PRE Application SOLNI, damage to plant (Solanum nigrum (SOLNI) [4]) | PRE Application ECHCG, damage to plant [5] | POST Application ALOMY, damage to plant [6] | POST Application AMARE, damage to plant [7] | POST Application SETFA, damage to plant (Setaria faberi (SETFA) [8]) | POST Application SOLNI, damage to plant (Solanum nigrum (SOLNI) [9]) | POST Application ECHCG, damage to plant [10] | pest or weed control at 1000 g/ha [1] | pest or weed control at 1000 g/ha [2] | pest or weed control at 1000 g/ha (Setaria faberi (SETFA) [3]) | pest or weed control at 1000 g/ha (Solanum nigrum (SOLNI) [4]) | pest or weed control at 1000 g/ha [5] | pest or weed control at 1000 g/ha [6] | pest or weed control at 1000 g/ha [7] | pest or weed control at 1000 g/ha (Setaria faberi (SETFA) [8]) | pest or weed control at 1000 g/ha (Solanum nigrum (SOLNI) [9]) | pest or weed control at 1000 g/ha [10]
O=C1CCCC(=O)C1C(=O)c1cc2cc(F)c(NC3CC3)nc2nc1C(F)(F)F [Compound 1.92, 2-[7-(cyclopropylamino)-6-fluoro-2-trifluoromethyl-[1,8]-naphthyridine-3-carbony]-cyclohexane-1,3-dione] | 60 | 100 | 100 | 100 | 100 | 80 | 100 | 80 | 80 | 80 | – | – | – | – | – | – | – | – | – | –
Cc1nc2nc(C(F)(F)C(F)(F)F)c(C(=O)C3C(=O)CCCC3=O)cc2cc1F [Compound 1.94] | 20 | 100 | 100 | 90 | 100 | 60 | 100 | 80 | 90 | 80 | – | – | – | – | – | – | – | – | – | –
CNc1nc2nc(C(F)(F)F)c(C(=O)C3C(=O)CCCC3=O)cc2cc1F [Compound 1.98, 2-[6-fluoro-7-methylamino-2-trifluoromethyl-[1,8]-naphthyridine-3-carbony]-cyclohexane-1,3-dione] | – | – | – | – | – | – | – | – | – | – | 20% | 100% | 100% | 100% | 100% | 70% | 90% | 80% | 40% | 80%
O=C1CCCC(=O)C1C(=O)c1cc2ccc(Br)nc2nc1C(F)(F)F [Compound 1.99] | – | – | – | – | – | – | – | – | – | – | 10% | 100% | 40% | 90% | 90% | 30% | 100% | 80% | 70% | 80%
COCc1nc2nc(C(F)(F)F)ccc2cc1C(=O)C1C(=O)CCCC1=O [Compound 1.100, 2-[2-(methoxymethyl)-7-trifluoromethyl-[1,8]-naphthyridine-3-carbony]-cyclohexane-1,3-dione] | 20 | 100 | 100 | 100 | 100 | 40 | 90 | 80 | 80 | 80 | – | – | – | – | – | – | – | – | – | –
CCOC(F)(F)c1nc2nc(C)c(F)cc2cc1C(=O)C1C(=O)CCCC1=O [Compound 1.102, 2-[2-(Ethoxydifluoromethyl)-6-fluoro-7-methyl-[1,8]-naphthyridine-3-carbonyl]-cyclohexane-1,3-dione] | – | – | – | – | – | – | – | – | – | – | 30% | 100% | 100% | 100% | 90% | 60% | 90% | 80% | 60% | 80%
C#CCNc1nc2nc(C(F)(F)F)c(C(=O)C3C(=O)CCCC3=O)cc2cc1F [Compound 1.103] | 40 | 80 | 100 | 100 | 100 | 70 | 80 | 90 | 90 | 80 | – | – | – | – | – | – | – | – | – | –
CCc1nc2nc(C(F)(F)F)ccc2cc1C(=O)C1C(=O)CCCC1=O [Compound 1.107, 2-[2-ethyl-7-trifluoromethyl-[1,8]-naphthyridine-3-carbony]-cyclohexane-1,3-dione] | – | – | – | – | – | – | – | – | – | – | 30% | 100% | 100% | 90% | 100% | 50% | 100% | 90% | 100% | 80%
CN(Cc1nc2nc(C(F)(F)F)ccc2cc1C(=O)C1C(=O)CCCC1=O)S(C)(=O)=O [Compound 1.108, 2-[{methanesulfonyl-N-methylaminomethyl}-7-trifluoromethyl-[1,8]-naphthyridine-3-carbony]-cyclohexane-1,3-dione] | 0 | 80 | 40 | 90 | 70 | 20 | 70 | 80 | 90 | 80 | – | – | – | – | – | – | – | – | – | –
Cc1cc(Cn2c(=O)ccc3cc(C(=O)C4C(=O)CCCC4=O)c(C(F)(F)F)nc32)no1 [Compound 2.1] | 80 | 90 | 90 | 90 | 90 | 90 | 100 | 90 | 90 | 80 | – | – | – | – | – | – | – | – | – | –
